# Experimental data taken from patent US20210077491A1, “PHARMACEUTICAL COMPOSITION” (Kowa Company, Ltd., priority 2017, published 2021).
# Assays:
# Format in all cases: in vivo, mouse
# [1] = tested on: pulmonary fibrosis model mice (intratracheal bleomycin); test: Amount of hydroxyproline in the lungs of bleomycin-induced pulmonary fibrosis model mice, therapeutic dosing (Example 2); conditions: therapeutic: oral from the 7th day after bleomycin exposure; compound A 50 mg/kg/day, losartan 50 mg/kg/day, pirfenidone 400 mg/kg/day; lungs at day 21; Dunnett test; FIG. 3
# Method: Model mice were prepared in the same manner as in Example 1.
# (§1) Investigation was conducted in mice not exposed to bleomycin (exposed to physiological saline in the trachea) in the normal group (6 mice), and pulmonary fibrosis model mice exposed to bleomycin in the trachea divided into 4 groups (control, compound A 50 mg/kg/day, losartan 50 mg/kg/day, and pirfenidone 400 mg/kg/day; 10 mice in each group). From the 7th day after exposure to bleomycin, a 0.5% aqueous solution of methylcellulose was orally administered (administered twice a day) to the normal group and the control group, the sample solution of compound A prepared above was orally administered (administered once a day) to the compound A administration group, the sample solution of losartan prepared above was orally administered (administered once a day) to the losartan administration group, and the sample solution of pirfenidone prepared above was orally administered (administered twice a day) to the pirfenidone administration group, respectively. Twenty-one days after the bleomycin exposure, the mice were anesthetized and whole lung tissues were extracted.
# The amount of hydroxyproline in the mice was measured by the same method as in Example 1.
# [2] = tested on: pulmonary fibrosis model mice (intratracheal bleomycin); test: Lung weight in bleomycin-induced pulmonary fibrosis model mice, preventive dosing (Example 1); conditions: male ICR mice, bleomycin 1.5 mg/kg intratracheal, lungs at day 21, FIG. 1; for lung weight as compared to the normal group: oral from the day after exposure, compound A 50 mg/kg/day, losartan 50 mg/kg/day, pirfenidone 400 mg/kg/day
# Method: (§2) 6-week-old male ICR mice (Japan SLC, Inc.) were exposed to bleomycin (Nippon Kayaku Co., Ltd.) (1.5 mg/kg) dissolved in physiological saline in the trachea to prepare pulmonary fibrosis model mice.
# as §1, with “the” for “the 7th”
# After washing the lung tissue extracted from the mouse with physiological saline, water was removed with a filter paper, and the wet weight was measured.
# [3] = tested on: pulmonary fibrosis model mice (intratracheal bleomycin); test: Amount of hydroxyproline in the lungs of bleomycin-induced pulmonary fibrosis model mice, preventive dosing (Example 1); conditions: preventive: oral from the day after bleomycin exposure, FIG. 2; for hydroxyproline in the lung as compared to the control group: compound A 50 mg/kg/day, losartan 50 mg/kg/day, lungs at day 21, Dunnett test
# Method: as §2
# as §1, with “the” for “the 7th”
# The lung tissue extracted from the mouse was homogenized in a PBS solution, then mixed with an equal volume of 12N hydrochloric acid in a tube, and incubated at 110° C. for 20 to 24 hours. After the incubation, the solution was volatilized by opening the tube and continuing the incubation. […] 10 μL of the sample was added with 100 μL of chloramine T solution (1.4% chloramine T, 10% n-propanol, 80% citrate acetate buffer) and incubated at room temperature for 20 minutes, then added with 100 μL of Ehrlich's reagent (1 M p-dimethylamino benzaldehyde, 20% perchloric acid, 50% n-propanol) and incubated at 65° C. for 15 minutes, and the absorbance at 550 nm was measured to quantify the amount of hydroxyproline.
Compound,hydroxyproline in the lung as compared to the control group [1],"lung weight as compared with the control group ([2]; oral 50 mg/kg/day once a day from the day after exposure, Dunnett test p<0.05)",lung weight as compared to the normal group [2],"decrease in hydroxyproline in the lung relative to the losartan administration group ([3]; compound A 50 mg/kg/day vs losartan 50 mg/kg/day, day 21)",hydroxyproline in the lung as compared to the control group [3]
"CCCc1nc(C(C)C)n(-c2ncc(OCC)cn2)c(=O)c1Cc1ccc(-c2ccccc2-c2noc(=O)[nH]2)nc1 [compound A, 3-[2-(5-{[1-(5-ethoxypyrimidin-2-yl)-2-isopropyl-6-oxo-4-propyl-1,6-dihydropyrimidin-5-yl]methyl}pyridin-2-yl)phenyl]-1,2,4-oxadiazol-5(4H)-one]",significant decrease in hydroxyproline in the lung,significant decrease in lung weight,no significant increase in lung weight,larger decrease than the losartan administration group,significant decrease in hydroxyproline in the lung
CCCCc1nc(Cl)c(CO)n1Cc1ccc(-c2ccccc2-c2nn[nH]n2)cc1 [losartan],no significant difference,,significant increase in lung weight,,significant decrease in hydroxyproline in the lung
Cc1ccc(=O)n(-c2ccccc2)c1 [pirfenidone],no significant difference,,significant increase in lung weight,,
